SMILES strings stand for the structures. Values after ≈ are worked out from the molar mass of the structure shown. Where two headings read alike, the source gives them in different places. A value given as a limit tells only on which side of the number the result lay.

The subject of one assay is S. pyogenes ATCC 19615. The assay can be described thus: MIC by microbroth dilution, S. pyogenes ATCC 19615. The format is cell-based, Streptococcus pyogenes. As to the method: (§1) Representative compounds of the formula (I) were assayed for antimicrobial activity as follows: Minimum Inhibitory Concentrations (MICs) were determined by the microbroth dilution method as per NCCLS guidelines (National Committee for Clinical Laboratory Standards, 2000). All growth incubations were conducted at 37° C. Bacterial cultures were tested in the following bacteriological media: S. aureus, S. epidermidis in Cation-Adjusted Mueller-Hinton Broth, S. pneumoniae in THY Broth supplemented with 1 mg/mL catalase under 5% CO2 atmosphere, S. pyogenes in THY Broth, E. faecalis in BHI Broth, H. influenzae in BHI Broth supplemented with 0.75 μL of 1 mg/mL NAD and 150 μL of 1 mg/ml hematin per 5 mL.
(§2) S. aureus ATCC 29213, S. epidermidis ATCC 12228, S. pneumoniae ATCC6303, S. pyogenes ATCC 19615 and E. faecalis ATCC 29212 are rifampin-susceptible Gram-positive strains. […] H. influenzae ATCC 10211 is Gram-negative bacteria.
(Dilution methods test growth across graded concentrations, often in twofold steps.)

A further assay has as its system S. pneumoniae ATCC6303. The assay can be described thus: MIC by microbroth dilution, S. pneumoniae ATCC6303. The class given is cell-based, Streptococcus pneumoniae. As to the method: as §1, §2
Assay [1] concerns Staphylococcus aureus MT1222 gyrA^A116E grlB^S80F. The assay can be described thus: MIC by microbroth dilution, quinolone-resistant S. aureus MT1222. The format is cell-based. As to the method: as §1, §2
Assay [2] concerns S. aureus ATCC 29213 RpoB^D417Y. The assay can be described thus: microbe, parasite or virus in culture. The class given is cell-based. The note with it: Staphylococcus aureus. As to the method:
as §1, §2

The subject of another assay is S. aureus ATCC 29213. The assay can be described thus: MIC by microbroth dilution, S. aureus ATCC 29213 (rifS). The format is cell-based, Staphylococcus aureus. As to the method: as §1, §2
Assay [3] relates to S. epidermidis ATCC 12228. The assay can be described thus: MIC by microbroth dilution, S. epidermidis ATCC 12228. The class given is cell-based, Staphylococcus epidermidis. As to the method: as §1, §2
The test system of a further assay is H. influenzae ATCC 10211. The assay can be described thus: MIC by microbroth dilution, H. influenzae ATCC 10211. The format is cell-based, Haemophilus influenzae. As to the method: as §1, §2
In assay [4] the test system is pathogenic microorganisms. Description: Antibacterial activity, influence of linker chirality (R versus S). The note with it: (R)- versus (S)-absolute configuration at the linker carbon. The format is cell-based. As to the method: as §1, with “As already mentioned, the compounds of formula I or their salts have antibacterial properties and activities against rifampin and quinolone resistant strains. […] Representative” for “Representative”
The antibacterial activities of the compounds of the formula (I) are influenced by the chirality of the linker.

A short description of assay [5]: MIC by microbroth dilution, panel of rifampin-susceptible Gram-positive strains. The format is cell-based. Conditions: range over the rifampin-susceptible Gram-positive strains. As to the method:
as §1, §2

Setting [6] is: Streptococcus pyogenes ATCC19615, rifS, read-out: Antimicrobial activity (MIC).
Where [7] appears, read: Streptococcus pneumoniae ATCC6303, rifS, read-out: Antimicrobial activity (MIC).
The mark [8] stands for this setting: read-out: Antimicrobial activity (MIC).
[9] abbreviates: ATCC29213, read-out: Antimicrobial activity (MIC).
Setting [10] is: Staphylococcus aureus ATCC29213, rifS, read-out: Antimicrobial activity (MIC).
Setting [11] is: Staphylococcus epidermidis ATCC12228, rifS, read-out: Antimicrobial activity (MIC).
[12] abbreviates: Haemophilus influenzae ATCC10211, rifS, read-out: Antimicrobial activity (MIC).
[13] abbreviates: Streptococcus pyogenes, ATCC19615, read-out: Antimicrobial activity (MIC).
Setting [14] is: Streptococcus pneumoniae, ATCC6303, read-out: Antimicrobial activity (MIC).
Where [15] appears, read: Staphylococcus aureus, ATCC29213, read-out: Antimicrobial activity (MIC).
The mark [16] stands for this setting: Staphylococcus epidermidis, ATCC12228, read-out: Antimicrobial activity (MIC).

With `O=C(O)c1cn(C2CC2)c2cc(N3CCNCC3)c(F)cc2c1=O` [ciprofloxacin], the MIC in the assay with S. pyogenes ATCC 19615 (setting [6]) was determined as 0.5 µg/mL (≈ 1.51 µM); in the assay with S. pneumoniae ATCC6303 (setting [7]), 1 µg/mL (≈ 3.02 µM); in assay [1], 8 µg/mL (≈ 24.1 µM); in assay [1] (setting [8]), 8 µg/mL (≈ 24.1 µM); in [2] (setting [9]) it was 0.25 µg/mL (≈ 0.754 µM); in the assay with S. aureus ATCC 29213 (setting [10]), 0.25 µg/mL (≈ 0.754 µM). Also, the results for the MIC (in assay [3] (setting [11]); with H. influenzae ATCC 10211 (setting [12])) were 0.125 µg/mL (≈ 0.377 µM) and 0.008 µg/mL (≈ 0.0241 µM), respectively.
For the compound `CO[C@H]1/C=C/O[C@@]2(C)Oc3c(C)c(O)c4c(O)c(c(/C=N/N5CCC(N(C)C6([C@@H]7CCN(c8c(F)cn9c(=O)c(C(=O)O)cc(C%10CC%10)c9c8C)C7)CC6)CC5)c(O)c4c3C2=O)NC(=O)/C(C)=C\C=C\[C@H](C)[C@H](O)[C@@H](C)[C@@H](O)[C@@H](C)[C@H](OC(C)=O)[C@@H]1C` [Example 1, (R)-3-[(4-{1-[1-(3-Carboxy-1-cyclopropyl-7-fluoro-9-methyl-4-oxo-4H-quinolizine-8-yl)-pyrrolidin-3-yl-cyclopropyl]-methylamino}-piperidin-1-ylimino)-methylenyl]-rifamycin SV], the MIC in the assay with S. pyogenes ATCC 19615 (setting [13]) amounted to 0.015 µg/mL (≈ 0.0124 µM); in the assay on S. pneumoniae ATCC6303 (setting [14]) it was 0.015 µg/mL (≈ 0.0124 µM); in assay [1] (setting [8]) it was 0.06 µg/mL (≈ 0.0498 µM); in [2] (setting [9]) it was 0.5 µg/mL (≈ 0.415 µM); with S. aureus ATCC 29213 (setting [15]), 0.06 µg/mL (≈ 0.0498 µM); in assay [3] (setting [16]), 0.06 µg/mL (≈ 0.0498 µM). The MIC in the assay on H. influenzae ATCC 10211 (setting [12]) is 0.5 µg/mL (≈ 0.415 µM). Further, the “antibacterial activity compared with example 2 ((S)-configuration)” value in assay [4] was “more active”.
For `CO[C@H]1/C=C/O[C@@]2(C)Oc3c(C)c(O)c4c(O)c(c(/C=N/N5CCN(C)CC5)c(O)c4c3C2=O)NC(=O)/C(C)=C\C=C\[C@H](C)[C@H](O)[C@@H](C)[C@@H](O)[C@@H](C)[C@H](OC(C)=O)[C@@H]1C` [rifampin], the MIC in the assay on S. pyogenes ATCC 19615 (setting [6]) is 0.013 µg/mL (≈ 0.0158 µM); in assay [5], 0.008 to 1 µg/mL (≈ 0.00972 to 1.22 µM); with S. pneumoniae ATCC6303 (setting [7]) it was 0.061 µg/mL (≈ 0.0741 µM); in assay [1] (setting [8]) it was 0.004 µg/mL (≈ 0.00486 µM); in assay [2] (ATCC29213) it was > 256 µg/mL; in assay [2] (setting [9]) it was > 256 µg/mL. Further, the MIC in the assay on S. aureus ATCC 29213 (setting [10]) is 0.008 µg/mL (≈ 0.00972 µM); in assay [3] (setting [11]) it was 0.03 µg/mL (≈ 0.0365 µM); in the assay with H. influenzae ATCC 10211 (setting [12]), 0.24 µg/mL (≈ 0.292 µM); in the assay with H. influenzae ATCC 10211 (Haemophilus influenzae, ATCC10211, Gram-negative bacteria (H. influenzae ATCC 10211, 'these organisms'), read-out: MICs), 0.24 to 16 µg/mL (≈ 0.292 to 19.4 µM).
For the compound `CO[C@H]1/C=C/O[C@@]2(C)Oc3c(C)c(O)c4c(O)c(c(/C=N/N5CCC(N(C)C6([C@H]7CCN(c8c(F)cn9c(=O)c(C(=O)O)cc(C%10CC%10)c9c8C)C7)CC6)CC5)c(O)c4c3C2=O)NC(=O)/C(C)=C\C=C\[C@H](C)[C@H](O)[C@@H](C)[C@@H](O)[C@@H](C)[C@H](OC(C)=O)[C@@H]1C` [Example 2, (S)-3-[(4-{1-[1-(3-Carboxy-1-cyclopropyl-7-fluoro-9-methyl-4-oxo-4H-quinolizine-8-yl)-pyrrolidin-3-yl-cyclopropyl]-methylamino}-piperidin-1-ylimino)-methylenyl]-rifamycin SV], the MIC with S. pyogenes ATCC 19615 (setting [13]) stood at 0.03 µg/mL (≈ 0.0249 µM); in the assay on S. pneumoniae ATCC6303 (setting [14]), 0.015 µg/mL (≈ 0.0124 µM); in [1] (setting [8]), 0.24 µg/mL (≈ 0.199 µM); in assay [2] (setting [9]) it was 8 µg/mL (≈ 6.64 µM); in the assay on S. aureus ATCC 29213 (setting [15]) it was 0.24 µg/mL (≈ 0.199 µM); in assay [3] (setting [16]), 0.12 µg/mL (≈ 0.0996 µM). Also, the MIC with H. influenzae ATCC 10211 (setting [12]) was determined as 0.5 µg/mL (≈ 0.415 µM).

The values are drawn from patent US7226931B2, “(R/S) rifamycin derivatives, their preparations and pharmaceutical compositions” (priority 2004, dated 2007).
